Consider one compound from patent publication US5882881A, “Inhibition of cyst formation by cytoskeletal specific drugs” (priority 1998, dated 1999).

Each structure is given as a SMILES string.

In series [1] the test system is Murine CPK Cells. The series is described as follows: In vitro cyst formation and cyst size in suspension culture of murine CPK cells. It is filed as cell-based, mouse. The method, then: At 10, 21 and 28 days after birth, mice having congenital polycystic kidney disease (CPK) and their phenotypically normal littermates were sacrificed by cervical dislocation. Kidneys were harvested aseptically and washed with DMEM/F12 (Sigma Chemical Co., St. Louis, Mo.) in a 1:1 mix. Each decapsulated kidney was chopped into cubes (1 mm) and incubated in 5 ml of collagenase solution composed of 1 mg/ml collagenase type IV (Worthington Biochemical Corporation, Freehold, N.J.), 1 mg/ml egg white trypsin inhibitor (Worthington) in 1:1 DMEM/F12.
The top 12 mls, which contained both single cells and aggregates of up to 10 cells, as assessed by inverted phase-ontrast microscopy, were placed in 2 ml aliquots in the wells of plastic culture plates (Corning, N.Y.) precoated with 1% agarose in DMEM:F12 (2 ml in each well of a 6-well plate; 1 ml in each well of a 24-well plate). Cell samples were digested with further incubation for 10 minutes in 0.05% trypsin and 0.53 mM EDTA (Gibco, BRL Gaithesburg, Md.) at 37° C. All cultures were plated at a final density of 1-3×10^4 cell, per well. For growth studies of monolayer cells, identical preparations were grown on the plastic surface of the culture plates. Both the monolayers and the cell suspensions were incubated at 37° C. in a moisture saturated incubator in 5% CO2 and air.
I used the in vitro cyst formation system of the present invention to analyze compounds that affect the process of cyst formation. To determine the therapeutic effectiveness of an agent, cyst-forming cells are suspended in a medium to which the agent has been added. These cells are then cultured on a solid phase without formation of a layer of cells on the surface, such as in the assay system described in Example 1. The extent to which the cells actually form cysts can be detected and compared to the extent of cyst formation expected if no agent were added. If the amount of cyst formation is lower than expected, then the agent is a good candidate for therapeutic intervention of cystic diseases.
The effects of various metabolic inhibitors on cyst formation were studied in cultures derived from day 21 postnatal CPK mice. […] Taxol (25 μM), a microtubule specific inhibitor, was from Calbiochem (La Jolla, Calif.). All other chemicals were obtained from Sigma Chemical Co. Cytosine arabinoside was added at the final concentration of 20 μg/ml to inhibit DNA synthesis; α-amanitin at 100 ng/ml to inhibit RNA synthesis; cycloheximide at 40 μg/ml to inhibit protein synthesis; amiloride at 1 mM to inhibit the renal epithelial Na^+ -H^+ exchange; ouabain at 0.5 mM to inhibit Na^+ -K^+ -ATPase; brefeldin-A at 10 μg/ml to inhibit transport of surface proteins; griseofulvin at 350 μM to inhibit microtubule function; colchicine at 10 μM to inhibit microtubule polymerization; and cytochalasin-B and cytochalasin-D at 10 μM to depolymerize actin filaments.
In the presence of these metabolic inhibitors in vitro, cyst formation was noted to be either present or absent; if present, the diameters of 20 cysts from a 0.2 ml aliquot were measured. In the same samples, ^3 H-dThd incorporation was also measured as described above. […] After each wash, cell clusters were collected by centrifuging at 200×g for 1 minute and the supernatant discarded. Washed cell clusters were resuspended in the original volume of growth medium without inhibitors, placed in agarose coated wells and incubated at 37° C. in a moisture saturated incubator in 5% CO2 and air.
In this table, the mean cyst size is reported as ±SD with a measurement of twenty cysts. The ^3 H-dThd incorporation is reported as ±SD using measurements of three wells. The * indicates […] versus control. […] The entries listed as "NA" in the table indicate data that is not available.

For series [2], the system named is homozygous cpk mice. Briefly: Survival of cpk mice on weekly intraperitoneal treatment (Example 8, FIG. 2). It is filed as in vivo, mouse. From the text:
Untreated and methotrexate (MTX) treated polycystic cpk mice all died before 30 days of age. Most polycystic cpk mice treated with weekly taxol survive more than 60 days. The dotted line starting at day 120 indicates the number and age of apparently healthy taxol treated polycystic mice that were sacrificed for histology studies. Pairs of mice were sacrificed at 120 days, 182 days and 210 days of age.
In order to determine whether taxol prevents cyst formation by inhibiting cell division, another drug known to have anti-mitotic activity, methotrexate, was tested for its ability to treat homozygous cpk mice. Six cpk mice were injected intraperitoneally with 15 μl of methotrexate solution (1.1 mg/ml in water) 10-12 days after birth and once every week thereafter. The methotrexate-injected mice survived until between 18 and 27 days after birth, with only one mouse living longer than 28 days. […] Therefore, the anti-mitotic activity of taxol cannot explain its ability to treat CPK mice having a polycystic-type kidney disease. Rather, the results from in vitro tests indicate that agents which interfere with the function of the cytoskeleton, or which inhibit the delivery of membrane proteins are useful in treating cystic diseases such as Polycystic Kidney Disease.
(§1) Eleven homozygous cpk mice, raised and identified as in Example 6 were treated with 15 μl of 10 mg/ml taxol in DMSO through intraperitoneal injection beginning 11-14 days after birth. Following the first treatment, the mice were administered with the same treatment once every week thereafter. As controls, 6 cpk mice were treated with 15 μl intraperitoneal injections of DMSO beginning 10-12 days after birth and then once every week thereafter.

Series [3] concerns cpk mice. Briefly: Growth and survival of cpk mice treated with taxol or methotrexate (FIG. 3B). It is filed as in vivo, mouse. From the text: (§2) […]. The body weights of untreated, taxol treated and methotrexate treated C57BL/6j mice between day 10 and day 45 after birth is shown in A. The body weights of untreated, taxol treated and methotrexate treated cpk mice are shown in B. Results in each group are the mean of 6 animals. Untreated and methotrexate treated cpk mice died between days 26 and 28. […].
(§3) In a related procedure I treated both normal C57BL/6 and cpk mice at 11-14 days of age with either taxol or methotrexate as described above. Six untreated mice served as controls in this experiment.

Series [4] concerns normal phenotype, heterozygous mice. The series is described as follows: Body weight of normal phenotype heterozygous C57BL/6 mice (FIG. 3A). It is filed as in vivo, mouse. The following applies: versus methotrexate or non-treated.
Source text: as §2, §3

Series [5] has as its system cpk mice kidney. It is filed as in vivo, mouse. The settings on record: weekly taxol for 200 days. The method, then: […]. Untreated and methotrexate (MTX) treated polycystic cpk mice all died before 30 days of age. […]. The dotted line starting at day 120 indicates the number and age of apparently healthy taxol treated polycystic mice that were sacrificed for histology studies. Pairs of mice were sacrificed at 120 days, 182 days and 210 days of age.
as §1

Series [6] concerns Murine CPK Cells. The series is described as follows: In vitro cyst formation and cyst size in suspension culture of murine CPK cells. It is filed as cell-based, mouse. The following applies: day 21, 24 h, final concentration per Table II (cytosine arabinoside 20 μg/ml, α-amanitin 100 ng/ml, cycloheximide 49 μg/ml, ouabain 1 mM, amiloride 1 mM, brefeldin-A 10 μg/ml, griseofulvin 350 μM, colchicine 10 μM, vinblastine 1 μM, nocodazole 30 μM, taxol 25 μM, cytochalasins 10 μM).

The conditions of series [7]: humans; approximately; cited from earlier work.

Consider `CC(=O)O[C@H]1C(=O)[C@@]2(C)[C@H]([C@H](OC(=O)c3ccccc3)[C@]3(O)C[C@H](OC(=O)[C@H](O)[C@@H](NC(=O)c4ccccc4)c4ccccc4)C(C)=C1C3(C)C)[C@]1(OC(C)=O)CO[C@@H]1C[C@@H]2O` [Taxol], for which the “Cyst Size” value in series [1] (mean ± SD of twenty cysts, concentrations as in Table II, control 71 ± 22) was found to be 0 μm. Besides, the “cyst formation (in words)” value in series [1] (murine CPK cells, 24 h suspension culture, ouabain 0.5 mM, also 1 mM, b155 taxol 25 μM, colchicine 10 μM, vinblastine 1 μM, cytochalasins 10 μM, model species not given) is “reversibly inhibited in vitro cyst formation in both models”. In addition, the “survival (in words)” value in series [2] (weekly i.p., versus untreated or DMSO) was “generally experienced substantially longer life spans”. In addition, in series [2] (weekly taxol, pairs sacrificed at 120, 182 and 210 days of age), the “condition of treated polycystic mice (in words)” value is “remained active until sacrifice and attained adult size and weight, despite having palpably enlarged kidneys”. This compound also showed an average survival in series [3] (FIG. 3, mean of 6 animals) of 45 ± 2 days. The “weight gain (in words)” value in series [3] (cpk mice, versus DMSO or methotrexate) is reported as “gained weight at substantially the same or lower rate”; in series [4], “gained less weight”. In series [3] (versus DMSO or methotrexate-treated mice), the “lifespan (in words)” value is recorded as “substantially longer lifespans”. Further, the “kidney histology of control mice” value in series [5] is on record as “normal kidney histology”. For the same compound, the “Cyst Formation (+/-)” value in series [6] is recorded as “-”. Further, the in vivo half-life in series [7] is 6 to 12 h.
